The experiment addresses T1, Purine nucleoside phosphorylase (Mycobacterium tuberculosis, UniProt P9WP01).
T1 sequence (P9WP01 whole entry): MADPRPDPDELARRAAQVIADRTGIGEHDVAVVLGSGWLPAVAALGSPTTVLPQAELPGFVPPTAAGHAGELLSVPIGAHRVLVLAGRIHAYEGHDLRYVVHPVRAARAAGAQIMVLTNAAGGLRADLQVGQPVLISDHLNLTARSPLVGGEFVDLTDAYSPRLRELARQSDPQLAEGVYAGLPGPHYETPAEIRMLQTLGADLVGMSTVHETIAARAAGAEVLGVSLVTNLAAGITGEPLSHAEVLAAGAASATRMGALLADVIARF
Nature of the experiment: Binding affinity to Mycobacterium tuberculosis purine nucleoside phosphorylase by spectrophotometric analysis.
Consider `CSc1nc(N)nc2[nH]cnc12`, for which binding was put at a Kd of 316 µM.

The compound `CSc1ncnc2c1ncn2[C@@H]1O[C@H](CO)[C@@H](O)[C@H]1O` showed a Kd of 12.6 µM.

Consider `Nc1nc2c(ncn2COCCO)c(=O)[nH]1` [ACYCLOVIR], for which the affinity, expressed as Kd, was 12.6 µM. That is a double-digit micromolar value.

The compound `Oc1ncnc2[nH]ncc12` [ALLOPURINOL] gave a Kd of 1000 µM.

`Nc1nc(O)c2ncn(COC(CO)CO)c2n1` [GANCICLOVIR] gave a Kd of 15.8 µM. Compared with the last compound, the Kd is about 63-fold lower.

Turning to `Sc1ncnc2nc[nH]c12` [MERCAPTOPURINE ANHYDROUS], the equilibrium dissociation constant (Kd) was 79.4 µM. Compared with the last compound, the Kd is about 5-fold higher.

`O=c1[nH]c(=O)c2c[nH]nc2[nH]1` [OXYPURINOL]: the equilibrium dissociation constant (Kd) was 794 µM.

Source of the values: ChEMBL document CHEMBL1177645, “Crystallographic and docking studies of purine nucleoside phosphorylase from Mycobacterium tuberculosis” (Bioorg Med Chem, 2010).
